Measured values published in ChEMBL document CHEMBL6103575, “Design, synthesis and evaluation of (E)-1-(4-(2-(1H-pyrazol-5-yl)vinyl)phenyl) derivatives as next generation selective RET inhibitors overcoming RET solvent front mutations (G810C/R)” (Eur J Med Chem, 2025).

Legend:
[1] = Induction of apoptosis in mouse BaF3 cells harboring CCDC6-RET G810C mutant assessed as necrotic cells at 30 nM incubated for 48 hrs by Annexin V-PE staining based flow cytometry analysis (Rvb =0.48%); assay type: functional
[2] = Induction of apoptosis in mouse BaF3 cells harboring CCDC6-RET assessed as viable cells at 30 nM incubated for 48 hrs by Annexin V-PE staining based flow cytometry analysis (Rvb =91.16%); assay type: functional; details: read-out: Activity
[3] = Induction of cell cycle arrest in mouse BaF3 cells harboring CCDC6-RET assessed as accumulation of cells at G2/M phase at 10 nM incubated for 24 hrs by propidium iodide staining based analysis (reference value: 34.11%); assay type: functional
[4] = Induction of apoptosis in mouse BaF3 cells harboring CCDC6-RET assessed as early apoptotic cells at 10 nM incubated for 48 hrs by Annexin V-PE staining based flow cytometry analysis (Rvb =6.21%); assay type: functional
BaF3 [5] = experiment: Inhibition of RET phosphorylation in mouse BaF3 cells harboring CCDC6-RET incubated for 12 hrs by Western blotting analysis; assay type: cell-based; details: dose <= 300.0 nM
[6] = Induction of cell cycle arrest in mouse BaF3 cells harboring CCDC6-RET G810R mutant assessed as accumulation of cells at G2/M phase at 10 nM incubated for 24 hrs by propidium iodide staining based analysis (reference value: 33.61%); assay type: functional
[7] = Induction of cell cycle arrest in mouse BaF3 cells harboring CCDC6-RET G810R mutant assessed as accumulation of cells at S phase at 30 nM incubated for 24 hrs by propidium iodide staining based analysis (reference value: 13.66%); assay type: functional
[8] = tested on: Proto-oncogene tyrosine-protein kinase receptor Ret (Homo sapiens), P07949 [G810C]; experiment: Inhibition of RET (unknown origin) G810C mutant at 1 uM relative to control
[9] = Induction of apoptosis in mouse BaF3 cells harboring CCDC6-RET G810R mutant assessed as early apoptotic cells at 300 nM incubated for 48 hrs by Annexin V-PE staining based flow cytometry analysis (Rvb =10 %); assay type: functional
[10] = Induction of cell cycle arrest in mouse BaF3 cells harboring CCDC6-RET assessed as accumulation of cells at S phase at 300 nM incubated for 24 hrs by propidium iodide staining based analysis (reference value: 13.27%); assay type: functional
BaF3 [11] = experiment: Antiproliferative activity against mouse BaF3 cells harbouring CCDC6-RET G810R mutant assessed as inhibition of cell proliferation incubated for 72 hrs by CCK-8 assay; assay type: functional, cell-based; details: BaF3, 72 h
[12] = Induction of cell cycle arrest in mouse BaF3 cells harboring CCDC6-RET G810C mutant assessed as accumulation of cells at S phase at 100 nM incubated for 24 hrs by propidium iodide staining based analysis (reference value: 12.47%); assay type: functional
[13] = Induction of cell cycle arrest in mouse BaF3 cells harboring CCDC6-RET G810C mutant assessed as accumulation of cells at G2/M phase at 100 nM incubated for 24 hrs by propidium iodide staining based analysis (reference value: 34.75%); assay type: functional
[14] = Induction of cell cycle arrest in mouse BaF3 cells harboring CCDC6-RET G810C mutant assessed as accumulation of cells at G2/M phase at 30 nM incubated for 24 hrs by propidium iodide staining based analysis (reference value: 34.75%); assay type: functional
[15] = Induction of apoptosis in mouse BaF3 cells harboring CCDC6-RET G810C mutant assessed as late apoptotic cells at 30 nM incubated for 48 hrs by Annexin V-PE staining based flow cytometry analysis (Rvb =4.30%); assay type: functional
[16] = Induction of cell cycle arrest in mouse BaF3 cells harboring CCDC6-RET assessed as accumulation of cells at S phase at 100 nM incubated for 24 hrs by propidium iodide staining based analysis (reference value: 13.27%); assay type: functional
[17] = Induction of cell cycle arrest in mouse BaF3 cells harboring CCDC6-RET G810R mutant assessed as accumulation of cells at G0/G1 phase at 100 nM incubated for 24 hrs by propidium iodide staining based analysis (reference value: 52.63%); assay type: functional
[18] = Induction of apoptosis in mouse BaF3 cells harboring CCDC6-RET G810R mutant assessed as early apoptotic cells at 30 nM incubated for 48 hrs by Annexin V-PE staining based flow cytometry analysis (Rvb =10 %); assay type: functional
[19] = target: Proto-oncogene tyrosine-protein kinase receptor Ret (Homo sapiens, UniProt P07949); experiment: Inhibition of RET (unknown origin) at 1 uM relative to control
[20] = Induction of apoptosis in mouse BaF3 cells harboring CCDC6-RET G810R mutant assessed as viable cells at 10 nM incubated for 48 hrs by Annexin V-PE staining based flow cytometry analysis (Rvb =86.40%); assay type: functional; details: read-out: Activity
[21] = Induction of apoptosis in mouse BaF3 cells harboring CCDC6-RET G810R mutant assessed as viable cells at 30 nM incubated for 48 hrs by Annexin V-PE staining based flow cytometry analysis (Rvb =86.40%); assay type: functional; details: read-out: Activity
[22] = Induction of apoptosis in mouse BaF3 cells harboring CCDC6-RET G810C mutant assessed as early apoptotic cells at 30 nM incubated for 48 hrs by Annexin V-PE staining based flow cytometry analysis (Rvb =8.74%); assay type: functional
[23] = target: Proto-oncogene tyrosine-protein kinase receptor Ret (Homo sapiens, UniProt P07949, V804M); experiment: Inhibition of RET (unknown origin) V804M mutant
[24] = target: Platelet-derived growth factor receptor alpha (Homo sapiens, UniProt P16234); experiment: Inhibition of PDGFRalpha (unknown origin)
[25] = Induction of cell cycle arrest in mouse BaF3 cells harboring CCDC6-RET assessed as accumulation of cells at G0/G1 phase at 100 nM incubated for 24 hrs by propidium iodide staining based analysis (reference value: 52.51%); assay type: functional
[26] = Induction of apoptosis in mouse BaF3 cells harboring CCDC6-RET G810R mutant assessed as necrotic cells at 300 nM incubated for 48 hrs by Annexin V-PE staining based flow cytometry analysis (Rvb =0.30%); assay type: functional
[27] = Induction of apoptosis in mouse BaF3 cells harboring CCDC6-RET G810C mutant assessed as viable cells at 30 nM incubated for 48 hrs by Annexin V-PE staining based flow cytometry analysis (Rvb =86.47%); assay type: functional; details: read-out: Activity
[28] = Induction of cell cycle arrest in mouse BaF3 cells harboring CCDC6-RET G810R mutant assessed as accumulation of cells at G0/G1 phase at 300 nM incubated for 24 hrs by propidium iodide staining based analysis (reference value: 52.63%); assay type: functional
[29] = Induction of cell cycle arrest in mouse BaF3 cells harboring CCDC6-RET G810R mutant assessed as accumulation of cells at S phase at 10 nM incubated for 24 hrs by propidium iodide staining based analysis (reference value: 13.66%); assay type: functional
[30] = Induction of apoptosis in mouse BaF3 cells harboring CCDC6-RET G810C mutant assessed as viable cells at 300 nM incubated for 48 hrs by Annexin V-PE staining based flow cytometry analysis (Rvb =86.47%); assay type: functional; details: read-out: Activity

Sequence of Platelet-derived growth factor receptor alpha (P16234 whole entry): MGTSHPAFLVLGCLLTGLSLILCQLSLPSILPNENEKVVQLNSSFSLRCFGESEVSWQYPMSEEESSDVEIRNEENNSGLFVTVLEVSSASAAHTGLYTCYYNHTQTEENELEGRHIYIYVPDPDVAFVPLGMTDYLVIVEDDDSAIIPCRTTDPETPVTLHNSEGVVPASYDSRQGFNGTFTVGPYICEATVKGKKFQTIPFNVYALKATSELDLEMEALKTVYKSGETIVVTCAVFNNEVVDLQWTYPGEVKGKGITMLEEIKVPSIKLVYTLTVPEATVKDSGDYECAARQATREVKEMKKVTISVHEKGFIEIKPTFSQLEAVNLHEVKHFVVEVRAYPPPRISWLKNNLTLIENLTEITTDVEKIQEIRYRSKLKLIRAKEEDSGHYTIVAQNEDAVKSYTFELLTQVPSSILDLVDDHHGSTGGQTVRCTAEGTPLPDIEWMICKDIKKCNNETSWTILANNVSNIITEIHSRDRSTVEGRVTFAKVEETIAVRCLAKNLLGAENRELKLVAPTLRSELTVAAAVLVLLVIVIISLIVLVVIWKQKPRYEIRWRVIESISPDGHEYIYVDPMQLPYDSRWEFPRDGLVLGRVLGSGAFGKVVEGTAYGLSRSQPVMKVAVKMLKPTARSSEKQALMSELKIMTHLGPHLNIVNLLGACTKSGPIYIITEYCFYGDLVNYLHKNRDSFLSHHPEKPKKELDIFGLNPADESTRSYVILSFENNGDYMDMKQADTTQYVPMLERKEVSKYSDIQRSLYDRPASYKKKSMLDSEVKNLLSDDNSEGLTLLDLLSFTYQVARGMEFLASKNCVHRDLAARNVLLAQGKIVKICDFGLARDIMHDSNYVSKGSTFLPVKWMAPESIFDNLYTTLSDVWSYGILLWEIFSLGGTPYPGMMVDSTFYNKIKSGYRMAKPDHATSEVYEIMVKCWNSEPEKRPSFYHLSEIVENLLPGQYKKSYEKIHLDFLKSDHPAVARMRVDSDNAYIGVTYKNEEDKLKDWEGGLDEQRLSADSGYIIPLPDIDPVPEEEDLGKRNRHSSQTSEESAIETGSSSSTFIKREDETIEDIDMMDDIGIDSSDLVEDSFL
Sequence of Proto-oncogene tyrosine-protein kinase receptor Ret (Homo sapiens, UniProt P07949) (P07949 whole entry): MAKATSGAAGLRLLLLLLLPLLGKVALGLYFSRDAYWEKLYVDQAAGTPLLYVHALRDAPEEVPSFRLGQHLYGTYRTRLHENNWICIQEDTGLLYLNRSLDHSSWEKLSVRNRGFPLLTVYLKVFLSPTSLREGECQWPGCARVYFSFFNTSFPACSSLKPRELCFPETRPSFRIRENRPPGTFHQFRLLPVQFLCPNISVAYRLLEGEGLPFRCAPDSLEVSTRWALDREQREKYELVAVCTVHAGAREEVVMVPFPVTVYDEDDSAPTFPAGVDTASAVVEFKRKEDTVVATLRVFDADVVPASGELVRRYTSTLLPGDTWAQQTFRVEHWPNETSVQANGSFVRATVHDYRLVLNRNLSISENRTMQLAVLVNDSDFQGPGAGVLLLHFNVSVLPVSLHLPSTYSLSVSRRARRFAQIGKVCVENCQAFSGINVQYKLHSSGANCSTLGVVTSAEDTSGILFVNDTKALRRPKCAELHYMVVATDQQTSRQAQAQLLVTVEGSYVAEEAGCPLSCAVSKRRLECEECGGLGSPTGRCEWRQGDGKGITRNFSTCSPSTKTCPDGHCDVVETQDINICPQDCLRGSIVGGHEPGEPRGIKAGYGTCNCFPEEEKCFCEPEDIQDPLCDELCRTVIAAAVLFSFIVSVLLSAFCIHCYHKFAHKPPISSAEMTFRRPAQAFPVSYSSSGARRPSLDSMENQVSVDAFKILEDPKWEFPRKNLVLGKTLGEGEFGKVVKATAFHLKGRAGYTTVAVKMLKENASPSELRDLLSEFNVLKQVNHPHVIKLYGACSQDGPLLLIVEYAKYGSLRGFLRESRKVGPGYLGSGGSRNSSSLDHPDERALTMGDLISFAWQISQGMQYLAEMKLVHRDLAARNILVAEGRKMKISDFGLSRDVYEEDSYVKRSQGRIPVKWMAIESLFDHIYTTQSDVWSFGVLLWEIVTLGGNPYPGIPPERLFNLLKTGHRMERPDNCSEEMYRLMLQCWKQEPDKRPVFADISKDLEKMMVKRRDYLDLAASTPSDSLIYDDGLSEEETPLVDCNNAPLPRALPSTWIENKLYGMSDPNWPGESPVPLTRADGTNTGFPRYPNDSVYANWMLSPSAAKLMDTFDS
Sequence of Proto-oncogene tyrosine-protein kinase receptor Ret (Homo sapiens, UniProt P07949, V804M) (P07949 29-1114 V804M limits assumed): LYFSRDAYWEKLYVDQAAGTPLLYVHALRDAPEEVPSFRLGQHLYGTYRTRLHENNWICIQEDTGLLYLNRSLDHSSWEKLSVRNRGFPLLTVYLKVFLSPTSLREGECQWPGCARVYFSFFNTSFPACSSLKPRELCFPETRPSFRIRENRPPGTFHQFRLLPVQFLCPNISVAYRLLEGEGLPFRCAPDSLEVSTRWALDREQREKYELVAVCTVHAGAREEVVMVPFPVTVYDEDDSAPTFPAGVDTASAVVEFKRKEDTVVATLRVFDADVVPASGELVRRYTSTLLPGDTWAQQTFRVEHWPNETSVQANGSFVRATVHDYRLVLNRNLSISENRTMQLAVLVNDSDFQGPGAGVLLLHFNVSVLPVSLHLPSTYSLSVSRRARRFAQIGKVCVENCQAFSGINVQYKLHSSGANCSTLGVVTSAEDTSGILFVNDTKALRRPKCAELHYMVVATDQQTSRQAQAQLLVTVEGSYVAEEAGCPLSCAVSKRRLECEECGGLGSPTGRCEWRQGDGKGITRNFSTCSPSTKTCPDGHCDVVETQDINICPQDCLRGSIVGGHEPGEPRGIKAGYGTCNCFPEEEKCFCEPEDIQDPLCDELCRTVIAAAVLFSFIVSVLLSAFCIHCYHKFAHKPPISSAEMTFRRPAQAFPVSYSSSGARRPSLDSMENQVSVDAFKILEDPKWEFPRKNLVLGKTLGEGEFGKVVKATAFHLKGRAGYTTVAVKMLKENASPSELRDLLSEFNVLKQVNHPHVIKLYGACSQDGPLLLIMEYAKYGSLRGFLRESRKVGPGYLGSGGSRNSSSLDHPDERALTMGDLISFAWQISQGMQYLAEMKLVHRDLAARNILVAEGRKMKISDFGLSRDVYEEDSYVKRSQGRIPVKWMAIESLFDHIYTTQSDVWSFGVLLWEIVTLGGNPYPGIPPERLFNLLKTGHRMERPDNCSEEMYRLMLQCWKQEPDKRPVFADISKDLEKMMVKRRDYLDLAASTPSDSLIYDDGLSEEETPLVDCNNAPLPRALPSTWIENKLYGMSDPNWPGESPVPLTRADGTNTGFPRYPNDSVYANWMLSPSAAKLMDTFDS
Sequence of Proto-oncogene tyrosine-protein kinase receptor Ret (Homo sapiens), P07949 [G810C] (P07949 whole entry G810C): as the sequence (P07949 whole entry) above, with G810C counted along it

inhibition [8]: 102%
IC50 (BaF3 [11]): 28.4 nM
inhibition [19]: 98.3%
IC50 [23]: 162 nM
IC50 [24]: 17.3 nM
Compound: COc1cncc(-c2cn[nH]c2/C=C/c2ccc(NC(=O)Nc3cc(C(C)(C)C(F)(F)F)on3)c(Cl)c2)c1
Activity [1]: 0.47%
viability at 0.03 µM [2]: 76.8%
Activity [3]: 32.46%
Activity [4]: 8.7%
inhibition (BaF3 [5]): Dose-dependent-effect
Activity [6]: 32.33%
Activity [7]: 14.08%
Activity [9]: 0.29%
Activity [10]: 3.34%
Activity [12]: 6.84%
Activity [13]: 25.81%
Activity [14]: 30.79%
Activity [15]: 3.57%
Activity [16]: 7.33%
Activity [17]: 57.96%
Activity [18]: 9.96%
viability at 0.01 µM [20]: 86.4%
viability at 0.03 µM [21]: 87.4%
Activity [22]: 9.54%
Activity [25]: 69.43%
Activity [26]: 0.07%
viability at 0.03 µM [27]: 86.2%
Activity [28]: 78.85%
Activity [29]: 13.31%
viability at 0.3 µM [30]: 8.22%
